In US10800792B2, “Inhibitors of Bruton's tyrosine kinase and method of their use” (JANSSEN PHARMACEUTICA NV, priority 2015, dated 2020):

Target: unphosphorylated-BTK kinase domain (UP-BTK), GST-tagged human BTK (389-659aa) (Homo sapiens (Human), UniProt Q06187)
Experiment: BTK kinase Lanthascreen binding assay
Settings: pIC50 = negative log of the IC50 in molar, 60 minutes incubation, 50 nM Tracer 236
Outline: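 A fluorescent tracer is bound to unphosphorylated BTK; test compound is added to compete it off; the Lanthascreen signal is read and IC50 is fitted, then reported as its negative log in molar.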

Chain of unphosphorylated-BTK kinase domain (UP-BTK), GST-tagged human BTK (389-659aa) (Q06187 389-659): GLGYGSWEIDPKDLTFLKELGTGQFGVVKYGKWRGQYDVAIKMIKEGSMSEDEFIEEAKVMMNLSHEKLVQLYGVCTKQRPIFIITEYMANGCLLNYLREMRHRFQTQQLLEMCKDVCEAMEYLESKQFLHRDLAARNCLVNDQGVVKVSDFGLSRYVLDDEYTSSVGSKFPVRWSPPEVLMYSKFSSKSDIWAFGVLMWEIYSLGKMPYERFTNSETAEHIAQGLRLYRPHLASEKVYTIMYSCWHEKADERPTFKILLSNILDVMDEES

Structure (SMILES)	BTK_I_binding pIC50	IC50 (read-out: BTK_I_binding pIC50 (converted)) [nM]
CO[C@@H]1CNC[C@@H]1NC(=O)c1sc2nccc3c2c1NC(=O)N3c1ccc(Oc2ccccc2)cc1C [Example 211, N-((3S,4R)-4-Methoxypyrrolidin-3-yl)-5-(2-methyl-4-phenoxyphenyl)-4-oxo-4,5-dihydro-3H-1-thia-3,5,8-triazaacenaphthylene-2-carboxamide]	6.7	–
CCNC(C)(C)/C=C(\C#N)C(=O)N1CCC[C@@H](NC(=O)c2sc3nccc4c3c2NC(=O)N4c2ccc(Oc3ccccc3)cc2C)C1 [Example 212, (R,E)-N-(1-(2-Cyano-4-(ethylamino)-4-methylpent-2-enoyl)piperidin-3-yl)-5-(2-methyl-4-phenoxyphenyl)-4-oxo-4,5-dihydro-3H-1-thia-3,5,8-triazaacenaphthylene-2-carboxamide]	7.0	–
Cc1cc(Oc2ccccc2)ccc1N1C(=O)Nc2c(C(=O)N[C@@H]3CCCN(C4CC4)C3)sc3nccc1c23 [Example 213, (R)—N-(1-Cyclopropylpiperidin-3-yl)-5-(2-methyl-4-phenoxyphenyl)-4-oxo-4,5-dihydro-3H-1-thia-3,5,8-triazaacenaphthylene-2-carboxamide]	6.5	–
Cc1cc(Oc2cccc(F)c2)ccc1N1C(=O)Nc2c(C(=O)N[C@@H]3CCCN(C)C3)sc3nccc1c23 [Example 214, (R)-5-(4-(3-Fluorophenoxy)-2-methylphenyl)-N-(1-methylpiperidin-3-yl)-4-oxo-4,5-dihydro-3H-1-thia-3,5,8-triazaacenaphthylene-2-carboxamide]	6.8	–
COCCC(=O)N1CCC[C@@H](NC(=O)c2sc3nccc4c3c2NC(=O)N4c2ccc(Oc3ccccc3)cc2F)C1 [Example 215, (R)-5-(2-Fluoro-4-phenoxyphenyl)-N-(1-(3-methoxypropanoyl)piperidin-3-yl)-4-oxo-4,5-dihydro-3H-1-thia-3,5,8-triazaacenaphthylene-2-carboxamide]	7.2	–
C=CC(=O)N1CCC[C@@H](NC(=O)c2sc3nccc4c3c2NC(=O)N4c2ccccc2C)C1 [Example 216, (R)—N-(1-Acryloylpiperidin-3-yl)-4-oxo-5-(o-tolyl)-4,5-dihydro-3H-1-thia-3,5,8-triazaacenaphthylene-2-carboxamide]	6.7	–
Cc1cc(Oc2ccccc2)ccc1N1C(=O)Nc2c(C(=O)NCCN3CCNC3=O)sc3nccc1c23 [Example 217, 5-(2-Methyl-4-phenoxyphenyl)-4-oxo-N-(2-(2-oxoimidazolidin-1-yl)ethyl)-4,5-dihydro-3H-1-thia-3,5,8-triazaacenaphthylene-2-carboxamide]	6.5	–
Cc1cc(Oc2ccccc2)ccc1N1C(=O)Nc2c(C(=O)N[C@H]3CNC[C@@H]3F)sc3nccc1c23 [Example 218, N-((3S,4S)-4-Fluoropyrrolidin-3-yl)-5-(2-methyl-4-phenoxyphenyl)-4-oxo-4,5-dihydro-3H-1-thia-3,5,8-triazaacenaphthylene-2-carboxamide]	6.8	–
Cc1cc(Oc2ccccc2)ccc1N1C(=O)Nc2c(C(=O)N[C@@H]3CCCN(C(=O)C4CCOCC4)C3)sc3nccc1c23 [Example 219, (R)-5-(2-Methyl-4-phenoxyphenyl)-4-oxo-N-(1-(tetrahydro-2H-pyran-4-carbonyl)piperidin-3-yl)-4,5-dihydro-3H-1-thia-3,5,8-triazaacenaphthylene-2-carboxamide]	6.9	–
Cc1cc(Oc2ccccc2O)ccc1N1C(=O)Nc2c(C(=O)N[C@@H]3CCCN(C)C3)sc3nccc1c23 [Example 220, (R)-5-(4-(2-Hydroxyphenoxy)-2-methylphenyl)-N-(1-methylpiperidin-3-yl)-4-oxo-4,5-dihydro-3H-1-thia-3,5,8-triazaacenaphthylene-2-carboxamide]	6.5	–
Cc1cc(Oc2ccccc2)cc(F)c1N1C(=O)Nc2c(C(=O)N[C@@H]3CCCN(C)C3)sc3nccc1c23 [Example 222, (R)-5-(2-Fluoro-6-methyl-4-phenoxyphenyl)-N-(1-methylpiperidin-3-yl)-4-oxo-4,5-dihydro-3H-1-thia-3,5,8-triazaacenaphthylene-2-carboxamide]	6.7	–
Cc1cc(Oc2ccccc2C(C)C)ccc1N1C(=O)Nc2c(C(=O)N[C@@H]3CCCN(C)C3)sc3nccc1c23 [Example 223, (R)-5-(4-(2-Isopropylphenoxy)-2-methylphenyl)-N-(1-methylpiperidin-3-yl)-4-oxo-4,5-dihydro-3H-1-thia-3,5,8-triazaacenaphthylene-2-carboxamide]	6.6	–
CO[C@H]1CNC[C@H](NC(=O)c2sc3nccc4c3c2NC(=O)N4c2ccc(Oc3ccccc3)cc2C)C1 [Example 224, N-((3R,5R)-5-Methoxypiperidin-3-yl)-5-(2-methyl-4-phenoxyphenyl)-4-oxo-4,5-dihydro-3H-1-thia-3,5,8-triazaacenaphthylene-2-carboxamide]	6.8	–
CC(C)=CC(=O)N1CCC[C@@H](NC(=O)c2sc3nccc4c3c2NC(=O)N4c2ccc(Oc3ccccc3)cc2C)C1 [Example 225, (R)-5-(2-Methyl-4-phenoxyphenyl)-N-(1-(3-methylbut-2-enoyl)piperidin-3-yl)-4-oxo-4,5-dihydro-3H-1-thia-3,5,8-triazaacenaphthylene-2-carboxamide]	6.7	–
COCc1cccc(Oc2ccc(N3C(=O)Nc4c(C(=O)N[C@@H]5CCCN(C)C5)sc5nccc3c45)c(C)c2)c1 [Example 226, (R)-5-(4-(3-(Methoxymethyl)phenoxy)-2-methylphenyl)-N-(1-methylpiperidin-3-yl)-4-oxo-4,5-dihydro-3H-1-thia-3,5,8-triazaacenaphthylene-2-carboxamide]	6.5	–
Cc1cc(Oc2ccccc2OC(F)(F)F)ccc1N1C(=O)Nc2c(C(=O)N[C@@H]3CCCN(C)C3)sc3nccc1c23 [Example 227, (R)-5-(2-Methyl-4-(2-(trifluoromethoxy)phenoxy)phenyl)-N-(1-methylpiperidin-3-yl)-4-oxo-4,5-dihydro-3H-1-thia-3,5,8-triazaacenaphthylene-2-carboxamide]	6.5	–
Cc1cc(Oc2ccccc2)ccc1N1C(=O)Nc2c(C(=O)N[C@@H]3CCCN(C(=O)/C(F)=C/C4CC4)C3)sc3nccc1c23 [Example 228, (R,Z)—N-(1-(3-Cyclopropyl-2-fluoroacryloyl)piperidin-3-yl)-5-(2-methyl-4-phenoxyphenyl)-4-oxo-4,5-dihydro-3H-1-thia-3,5,8-triazaacenaphthylene-2-carboxamide]	6.6	–
Cc1cc(Oc2ccccc2)ccc1N1C(=O)Nc2c(C(=O)NC3CN(C(=O)/C(C#N)=C/C4CC4)C3)sc3nccc1c23 [Example 229, (E)-N-(1-(2-Cyano-3-cyclopropylacryloyl)azetidin-3-yl)-5-(2-methyl-4-phenoxyphenyl)-4-oxo-4,5-dihydro-3H-1-thia-3,5,8-triazaacenaphthylene-2-carboxamide]	6.7	–
Cc1cc(Oc2ccccc2)ccc1N1C(=O)Nc2c(C(=O)NC3CN(C4CC4)C3)sc3nccc1c23 [Example 230, N-(1-Cyclopropylazetidin-3-yl)-5-(2-methyl-4-phenoxyphenyl)-4-oxo-4,5-dihydro-3H-1-thia-3,5,8-triazaacenaphthylene-2-carboxamide]	6.4	–
Cc1cc(OC2CCOCC2)ccc1N1C(=O)Nc2c(C(=O)N[C@@H]3CCCN(C(=O)/C(C#N)=C/C4CC4)C3)sc3nccc1c23 [Example 233, (R,E)-N-(1-(2-Cyano-3-cyclopropylacryloyl)piperidin-3-yl)-5-(2-methyl-4-((tetrahydro-2H-pyran-4-yl)oxy)phenyl)-4-oxo-4,5-dihydro-3H-1-thia-3,5,8-triazaacenaphthylene-2-carboxamide]	7.2	–
O=C(N[C@@H]1CCCNC1)c1sc2nccc3c2c1NC(=O)N3c1c(F)cc(Oc2ccccc2)cc1F [Example 235, (R)-5-(2,6-difluoro-4-phenoxyphenyl)-4-oxo-N-(piperidin-3-yl)-4,5-dihydro-3H-1-thia-3,5,8-triazaacenaphthylene-2-carboxamide]	7.0	–
Cc1cc(Oc2ccccc2)ccc1N1C(=O)Nc2c(C(=O)N[C@H]3CNC[C@@H]3O)sc3nccc1c23 [Example 236, N-((3S,4S)-4-Hydroxypyrrolidin-3-yl)-5-(2-methyl-4-phenoxyphenyl)-4-oxo-4,5-dihydro-3H-1-thia-3,5,8-triazaacenaphthylene-2-carboxamide]	7.0	–
Cc1cc(Oc2ccccc2)ccc1N1C(=O)Nc2c(C(=O)NC3CCCN(C(=O)/C=C/CNC(=O)CCCC(=O)NCCCOCCOCCOCCCNC(=O)CCCC[C@H]4SC[C@@H]5NC(=O)N[C@@H]54)C3)sc3nccc1c23 (stereo partly drawn) [Example 237, N^1-((E)-4-(3-(5-(2-methyl-4-phenoxyphenyl)-4-oxo-4,5-dihydro-3H-1-thia-3,5,8-triazaacenaphthylene-2-carboxamido)piperidin-1-yl)-4-oxobut-2-en-1-yl)-N5-(15-oxo-19-((3aS,4R,6aR)-2-oxohexahydro-1H-thieno[34-d]imidazol-4-yl)-4,7,10-trioxa-14-azanonadecyl)glutaramide]	6.9	–
CNC(C)(C)/C=C(\C#N)C(=O)N1CCC[C@@H](NC(=O)c2sc3nccc4c3c2NC(=O)N4c2ccc(Oc3ccccc3)cc2C)C1 [Example 238, (R,E)-N-(1-(2-Cyano-4-methyl-4-(methylamino)pent-2-enoyl)piperidin-3-yl)-5-(2-methyl-4-phenoxyphenyl)-4-oxo-4,5-dihydro-3H-1-thia-3,5,8-triazaacenaphthylene-2-carboxamide]	6.8	–
Cc1cc(Oc2ccccc2)ccc1N1C(=O)Nc2c(C(=O)NC3CN(C(=O)CCS(C)(=O)=O)C3)sc3nccc1c23 [Example 240]	–	200
